Data published in patent US20130231480A1, “SEQUENCE SPECIFIC DOUBLE-STRANDED DNA/RNA BINDING COMPOUNDS AND USES THEREOF” (GENEARREST LTD, priority 2010, published 2013).

Tests used:
[1] = test system: 25 mer A-T-DNA; experiment: TM measurement by RT-PCR (HRM/SYBR green), A-T DNA; format: binding; conditions: for shift in TM of A-T DNA: (d/dT) fluorescence (465-510), compared to the control without addition; for TM of 25 mer A-T-DNA in the treated well: control wells 56.1-57.1° C.
Description: (§1) The primers listed in Table 4 were purchased from Sigma Aldrich (Israel). Primers number 1 and 3 are complementary and annealed to form CG/GC double-stranded DNA fragment, and primers number 5 and 7 are complementary and annealed to form AT double-stranded DNA fragment. The DNA complementary oligomers were hybridized in a medium salt buffer containing 10 mM NaCl, 10 mM sodium phosphate and 0.1 mM EDTA, pH 7.0. The samples were heated to 90° C. for 5 min, slowly cooled to 20° C. and left at 4° (1 until used for TM measurements with RT-PCR.
(§2) According to this method, 5 μl of a selected double-stranded DNA is incubated with a 5 μl solution of a selected compound at RT for 5 min; 10 μl HRM/SYB (high resolution melting/syber green I) (X2) are then added; and the TM is then measured. The run program for TM measurement is as following: keep temperature of final solution at 25° C. for 5 min, raise temperature up to 99° C. with a rate of 0.1° C./sec, and then cool to 37° C.
(§3) In a further study, the effect of AH-11 as well as three additional similar compounds having the same heterocyclic (pyridine) core on the TM of DNA double-stranded sequences consisting of A-T or C-G base pairs only was tested by RT-PCR as described in Materials and Methods. The additional compounds tested are 4-amino-N-(6-aminopyridin-2-yl)butanamide, N,N′-(pyridine-2,6-diyl)bis(3-aminopropanamide), and N,N′-(pyridine-2,6-diyl)bis(4-aminobutanamide), herein identified […] and AH-14, respectively (chemical structures are shown in Scheme 5). […] Compounds AH-11, AH-12 and AH-13 increased the TM of 25 mer A-T-DNA by 4.2° C., 5.7° C. and 9.9° C., respectively. In all four cases, no effect was observed on the TM of 25 mer C-G-DNA (the TM shift range between 0.3 and 0.8° C.).
(§4) In this study, the ability of monomer units M1-6a, designed to be specific for A-T base pairs only, and M4-4a, designed to be specific for C-G base pairs only, to effectively and selectively bind to DNA double-stranded sequences consisting of A-T or C-G base pairs only was tested using the RT-PCR method as described in Material and Methods. Nevertheless, in order to neutralize a possible influence of the carboxylic groups of these monomers on the specificity and selectivity of the monomers, the compounds practically used were 3-(2-amino-9-(2-((2-(tert-butoxycarbonylamino)ethyl)(2-ethoxy-2-oxoethyl)amino)-2-oxoethyl)-9H-purin-6-ylamino)-N,N,N-trimethylpropan-1-aminium and 3-(9-(2-((2-(tert-butoxycarbonylamino)ethyl)(2-ethoxy-2-oxoethyl)amino)-2-oxoethyl)-2-oxo-2,9-dihydro-1H-purin-6-ylamino)-N,N,N-trimethylpropan-1-aminium, which are analogs of these monomer units M1-6a and M4-4a, respectively, in which the carboxyl groups are protected with ethyl (see Scheme 10 and 17).

[2] = test system: 25 mer C-G-DNA; experiment: TM measurement by RT-PCR (HRM/SYBR green), C-G DNA; format: binding; conditions: for shift in TM of C-G DNA: (d/dT) fluorescence (465-510), compared to the control without addition; for TM of 25 mer C-G-DNA in the treated well: control wells 84.3-86° C.
Description: as §1, §2, §3, §4
The biological activity of the polymers synthesized, i.e., their ability to specifically interact with specific fragments of double-stranded DNA, was tested using the RT-PCR method, as described in Materials and Methods.

[3] = test system: 25 mer C-G-DNA; experiment: TM of treated duplex DNA by UV spectra at 260 nm, C-G DNA; format: binding; conditions: UV 260 nm; incubated at 37° C. for 36 hours
Description: (§5) Duplex DNA (dsDNA-1,2) sequences are formed by incubating a solution of single-strand DNA-1 and single-strand DNA-2 (1:1) at 90° C. for 5 min, and slowly cooling down to RT for 1-2 hours. Treated Duplex DNA (dsDNA-1,2 bonded to a triplex forming molecule of the invention) is formed by incubating a solution of triplex forming molecule (TFM) of the invention and dsDNA-1,2 (1:1) at 37° C. for 36 hours.
(§6) The melting temperature (TM), i.e., the temperature at which a DNA double helix dissociates into single strands, measurements of Duplex DNA or Treated Duplex DNA are carried out using quartz cuvettes with an optical path length of 1 cm on a Cray 300 UV/vis spectrophotometer interfaced with a computer for data collection and analysis. The temperature is increased from 30° C. to 98° C. at the rate of 1° C./min, and the TM is determined by plotting the first derivative of the absorbance at 260 nm vs. temperature profile. TM is defined as the temperature at which half the molecules are single-stranded.
(§7) In order to test the effect of AH-11, designed to be specific for A-T base pair, on the TM of DNA double-stranded sequences consisting of A-T or C-G base pairs only, two solutions each containing one of the aforesaid sequences were incubated with a solution containing the compound AH-11 at 37° C. for 36 hours, and treated double-stranded DNA were formed. […]

[4] = test system: 25 mer A-T-DNA; experiment: TM of treated duplex DNA by UV spectra at 260 nm, A-T DNA; format: binding; conditions: UV 260 nm; incubated at 37° C. for 36 hours; TM without compound 53° C.
Description: as §5, §6, §7

[5] = test system: restriction enzyme (satI); experiment: Prevention of restriction enzyme digestion of a PCR product (agarose gel); format: biochemical; conditions: for preventing restriction enzyme satI from digesting the DNA fragment: lanes 5+5B, 5+7B, 10+7B compared with cut 5 and cut 10 without AH-13
Source text: This can be seen by comparing lanes “5+5B”, “5+7B” and “[…]” with “cut 5” and “cut 10”, wherein no AH-13 was used.

[6] = test system: 25 mer A-T-DNA; experiment: TM measurement by RT-PCR (HRM/SYBR green), A-T DNA; format: binding; conditions: incubation time from 5 min to 60 or 100 min

Compound | shift in TM of A-T DNA [1] | TM of 25 mer A-T-DNA in the treated well [1] | shift in TM of C-G DNA [2] | effect on the TM of 25 mer A-T-DNA [1] | TM of 25 mer C-G-DNA in the treated well [2] | other results
3-(2-amino-9-(2-((2-(tert-butoxycarbonylamino)ethyl)(2-ethoxy-2-oxoethyl)amino)-2-oxoethyl)-9H-purin-6-ylamino)-N,N,N-trimethylpropan-1-aminium [analog of M1-6a] | 6.9 °C | 63 °C | < 1.0 °C |  |  | effect on the TM of 25 mer C-G-DNA [2]: did not affect
3-(9-(2-((2-(tert-butoxycarbonylamino)ethyl)(2-ethoxy-2-oxoethyl)amino)-2-oxoethyl)-2-oxo-2,9-dihydro-1H-purin-6-ylamino)-N,N,N-trimethylpropan-1-aminium [analog of M4-4a] | 0.3 °C |  | 5.6 °C | did not affect | 90.1 °C | 
NCCC(=O)Nc1cccc(N)n1 [AH-11, 3-amino-N-(6-aminopyridin-2-yl)propanamide] | 4.2 °C |  |  |  |  | effect on the TM of 25 mer C-G-DNA [3]: did not affect at all; TM of 25 mer A-T-DNA after treatment [4]: 85 °C
NCCCC(=O)Nc1cccc(N)n1 [AH-12, 4-amino-N-(6-aminopyridin-2-yl)butanamide] | 5.7 °C |  |  |  |  | 
NCCC(=O)Nc1cccc(NC(=O)CCN)n1 [AH-13, N,N′-(pyridine-2,6-diyl)bis(3-aminopropanamide)] | 9.9 °C |  |  |  |  | interference with satI enzyme activity in lane 10+5B ([5]; 10 μl PCR product + 5 μl AH-13, both cut and uncut DNA present): not sufficient to completely interfere with the enzyme activity; preventing restriction enzyme satI from digesting the DNA fragment [5]: capable in a concentration dependent manner of preventing a restriction enzyme (satI); preventing restriction enzyme satI from digesting the DNA fragment ([5]; listed as AH-1): capable of specifically interfering with the activity of the restriction enzyme satI, in a concentration dependent manner
NCCCC(=O)Nc1cccc(NC(=O)CCCN)n1 [AH-14, N,N′-(pyridine-2,6-diyl)bis(4-aminobutanamide)] | 11.7 °C |  | 0.8 °C | most effective compound |  | 
CC(C)(C)OC(=O)NCCN(CC(=O)O)C(=O)Cn1cnc2c(NCCC[N+](C)(C)C)nc(N)nc21 [M1-6a, 3-(2-amino-9-(2-((2-(tert-butoxycarbonylamino)ethyl)(carboxymethyl)amino)-2-oxoethyl)-9H-purin-6-ylamino)-N,N,N-trimethylpropan-1-aminium] |  | 63 °C |  |  | 85.1 °C | effect on the TM of 25 mer C-G-DNA [2]: did not affect at all; TM of treated 25 mer A-T-DNA upon increasing the incubation time [6]: No difference
CC(C)(C)OC(=O)NCCN(CC(=O)O)C(=O)Cn1cnc2c(NCCC[N+](C)(C)C)[nH]c(=O)nc21 [M4-4a, 3-(9-(2-((2-(tert-butoxycarbonylamino)ethyl)(carboxymethyl)amino)-2-oxoethyl)-2-oxo-2,9-dihydro-1H-purin-6-ylamino)-N,N,N-trimethylpropan-1-aminium] |  | 57.4 °C |  | did not affect at all | 90.1 °C | 
